molecular target: histone deacetylase (HDAC); assay: Inhibition of Histone Deacetylase Enzymatic Activity; type: biochemical; conditions: substrate Boc-Lys(Ac)-AMC, Fluor-de-Lys developer, 37° C., 20 min; against one or more of HDAC-1 to HDAC-11, SirT1 to SirT7 (isoform not given); read-out: HDAC Inhibitory Activity (IC50)
Description: The following protocol is used to assay the compounds of the invention. In the assay, the buffer used is 25 mM HEPES, pH 8.0, 137 mM NaCl, 2.7 mM KCl, 1 mM MgCl2 and the substrate is Boc-Lys(Ac)-AMC in a 50 mM stock solution in DMSO. The enzyme stock solution is 4.08 μg/mL in buffer.
The compounds are pre-incubated (2 μl in DMSO diluted to 13 μl in buffer for transfer to assay plate) with enzyme (20 μl of 4.08 μg/mL) for 10 min at room temperature (35 μl pre-incubation volume). The mixture is pre-incubated for 5 min at room temperature. The reaction is started by bringing the temperature to 37° C. and adding 16 μl substrate. Total reaction volume is 50 μl. […] A plate is incubated in the dark for 10 min at room temperature before reading (λEX=360 nm, λEm=470 nm, Cutoff filter at 435 nm).
In the table, “A” indicates inhibitory activity at a concentration of <0.05 μM; “B” indicates inhibitory activity at a concentration >0.05 μM but <0.5 μM, “C” indicates inhibitory activity at >0.5 μM but <2 μM and “D” indicates inhibitory activity at a concentration of >2 μM but <10 μM.

Question: For O=C(CCOC1C[C@@H](C(=O)Nc2cccc3cccnc23)N(C(=O)OCc2ccccc2)C1)NO (stereo in doubt) [Compound 112d, (2S,4S)-benzyl 4-(3-(hydroxyamino)-3-oxopropoxy)-2-(quinolin-8-ylcarbamoyl) pyrrolidine-1-carboxylate], which IC50 is on record?
Answer: 50 to 500 nM

Question: With CC(C)[C@@H]1Nc2ccc(C(=O)NO)cc2NC1=O [Compound 4a, (S)-1,2,3,4-Tetrahydro-N-hydroxy-2-isopropyl-3-oxoquinoxaline-6-carboxamide] as the compound, how does the IC50 read?
Answer: 2000 to 10000 nM

Question: How did the IC50 turn out when CSCC[C@@H]1Nc2ccc(C(=O)NO)cc2NC1=O [Compound 4b, (S)-1,2,3,4-tetrahydro-N-hydroxy-2-(2-(methylthio)ethyl)-3-oxoquinoxaline-6-carboxamide] was run?
Answer: 2000 to 10000 nM

Question: How did the IC50 turn out when O=C(NO)c1ccc2c(c1)NC(=O)[C@H](Cc1c[nH]c3ccccc13)N2 [Compound 4c, (S)-2-((1H-indol-3-yl)methyl)-1,2,3,4-tetrahydro-N-hydroxy-3-oxoquinoxaline-6-carboxamide] was run?
Answer: 500 to 2000 nM

Question: How did the IC50 turn out when CCC(C)[C@@H]1Nc2ccc(C(=O)NO)cc2NC1=O (stereo partly drawn) [Compound 4d, (S)-2-sec-butyl-1,2,3,4-tetrahydro-N-hydroxy-3-oxoquinoxaline-6-carboxamide] was run?
Answer: 2000 to 10000 nM

Question: For CC(C)[C@H]1Nc2ccc(C(=O)NO)cc2NC1=O [Compound 4e, (R)-1,2,3,4-tetrahydro-N-hydroxy-2-isopropyl-3-oxoquinoxaline-6-carboxamide], which IC50 is on record?
Answer: 2000 to 10000 nM

Question: O=C(NO)c1ccc2c(c1)NC(=O)[C@@H](Cc1c[nH]c3ccccc13)N2 [Compound 4f, (R)-2-((1H-indol-3-yl)methyl)-1,2,3,4-tetrahydro-N-hydroxy-3-oxoquinoxaline-6-carboxamide] was tested. Which IC50 did it give?
Answer: 2000 to 10000 nM

Question: O=C(NO)c1ccc2c(c1)NC(=O)[C@H](Cc1cn(C(c3ccccc3)(c3ccccc3)c3ccccc3)cn1)N2 [Compound 4g, (S)-1,2,3,4-tetrahydro-N-hydroxy-3-oxo-2-((1-trityl-1H-imidazol-4-yl)methyl)quinoxaline-6-carboxamide] was tested. Which IC50 did it give?
Answer: 2000 to 10000 nM

Question: With CC(C)(C)Oc1ccc(C[C@@H]2Nc3ccc(C(=O)NO)cc3NC2=O)cc1 [Compound 4h, (S)-2-(4-tert-butoxybenzyl)-1,2,3,4-tetrahydro-N-hydroxy-3-oxoquinoxaline-6-carboxamide] as the compound, how does the IC50 read?
Answer: 2000 to 10000 nM

Question: For O=C(NO)c1ccc2c(c1)NC(=O)[C@H](Cc1ccccc1)N2 [Compound 4i, (S)-2-Benzyl-1,2,3,4-tetrahydro-N-hydroxy-3-oxoquinoxaline-6-carboxamide], which IC50 is on record?
Answer: 2000 to 10000 nM

Question: Which IC50 does the source give for CC(C)C[C@@H]1Nc2ccc(C(=O)NO)cc2NC1=O [Compound 4k, (S)-1,2,3,4-Tetrahydro-N-hydroxy-2-isobutyl-3-oxoquinoxaline-6-carboxamide] here?
Answer: 2000 to 10000 nM

Question: For Cn1cc(C[C@@H]2Nc3ccc(C(=O)NO)cc3NC2=O)c2ccccc21 [Compound 4l, (S)-1,2,3,4-tetrahydro-N-hydroxy-2-((1-methyl-1-H-indol-3-yl)methyl)-3-oxoquinoxaline-6-carboxamide], which IC50 is on record?
Answer: 500 to 2000 nM

Question: For Nc1ccccc1NC(=O)c1ccc2c(c1)NC(=O)[C@H](Cc1c[nH]c3ccccc13)N2 [Compound 5c, (S)-2-((1H-indol-3-yl)methyl)-N-(2-aminophenyl)-1,2,3,4-tetrahydro-3-oxoquinoxaline-6-carboxamide], which IC50 is on record?
Answer: 2000 to 10000 nM

Question: O=C(NO)c1ccc2c(c1)NC(=O)[C@H](Cc1ccc(O)cc1)N2 [Compound 6h, (S)-2-(4-Hydroxybenzyl)-1,2,3,4-tetrahydro-N-hydroxy-3-oxoquinoxaline-6-carboxamide] was tested. Which IC50 did it give?
Answer: 2000 to 10000 nM

Question: Which IC50 does the source give for COc1ccc(CN2c3ccc(C(=O)NO)cc3NC(=O)[C@@H]2C(C)C)cc1 [Compound 8, (S)-1-(4-Methoxybenzyl)-1,2,3,4-tetrahydro-N-hydroxy-2-isopropyl-3oxoquinoxaline-6-carboxamide] here?
Answer: 500 to 2000 nM

Question: For CC(C)[C@@H]1Nc2ccc(C(=O)NCCCCCC(=O)NO)cc2NC1=O [Compound 13, (S)—N-(5-(Hydroxycarbamoyl)pentyl)-1,2,3,4-tetrahydro-2-isopropyl-3-oxoquinoxaline-6-carboxamide], which IC50 is on record?
Answer: 50 to 500 nM

Question: For CC(C)[C@H]1C(=O)Nc2cc(C(=O)NO)ccc2N1Cc1ccc(F)cc1 [Compound 16a, (S)-1-(4-fluorobenzyl)-N-hydroxy-2-isopropyl-3-oxo-1,2,3,4-tetrahydroquinoxaline-6-carboxamide], which IC50 is on record?
Answer: 2000 to 10000 nM

Question: For CC(C)[C@H]1C(=O)Nc2cc(C(=O)NO)ccc2N1Cc1ccc(O)cc1 [Compound 16b, (S)-1-(4-hydroxybenzyl)-1,2,3,4-tetrahydro-N-hydroxy-2-isopropyl-3-oxoquinoxaline-6-carboxamide], which IC50 is on record?
Answer: 500 to 2000 nM

Question: CC(C)[C@H]1C(=O)Nc2cc(C(=O)NO)ccc2N1CCCc1ccccc1 [Compound 16c, (S)-1,2,3,4-tetrahydro-N-hydroxy-2-isopropyl-3-oxo-1-(3-phenylpropyl)quinoxaline-6-carboxamide] was tested. Which IC50 did it give?
Answer: 500 to 2000 nM

Question: How did the IC50 turn out when CC(C)[C@H]1C(=O)Nc2cc(C(=O)NO)ccc2N1Cc1ccc(C(=O)O)cc1 [Compound 16d, 4-(((S)-7-(hydroxycarbamoyl)-2,3-dihydro-3-isopropyl-2-oxoquinoxalin-4(1H)-yl)methyl)benzoic acid] was run?
Answer: 2000 to 10000 nM

Question: With CC(C)[C@H]1C(=O)Nc2cc(C(=O)NO)ccc2N1Cc1cccs1 [Compound 16e, (S)-1,2,3,4-tetrahydro-N-hydroxy-2-isopropyl-3-oxo-1-((thiophen-2-yl)methyl)quinoxaline-6-carboxamide] as the compound, how does the IC50 read?
Answer: 2000 to 10000 nM

Question: For CC(C)[C@H]1C(=O)Nc2cc(C(=O)NO)ccc2N1Cc1ccc(C(=N)NO)cc1 [Compound 16f, (S)—N-hydroxy-1-(4-(N-hydroxycarbamimidoyl)benzyl)-2-isopropyl-3-oxo-1,2,3,4-tetrahydroquinoxaline-6-carboxamide], which IC50 is on record?
Answer: 50 to 500 nM

Question: Which IC50 does the source give for CC(C)[C@H]1C(=O)Nc2cc(C(=O)NO)ccc2N1Cc1ccccc1 [Compound 16g, (S)-1-benzyl-1,2,3,4-tetrahydro-N-hydroxy-2-isopropyl-3-oxoquinoxaline-6-carboxamide] here?
Answer: 2000 to 10000 nM

Question: How did the IC50 turn out when CC(C)[C@H]1C(=O)Nc2cc(C(=O)NO)ccc2N1Cc1ccc2ccccc2c1 [Compound 16h, (S)-1,2,3,4-tetrahydro-N-hydroxy-2-isopropyl-1-((naphthalen-3-yl)methyl)-3-oxoquinoxaline-6-carboxamide] was run?
Answer: 500 to 2000 nM

Question: CC(C)[C@H]1C(=O)Nc2cc(C(=O)NO)ccc2N1S(=O)(=O)c1ccccc1 [Compound 18a, (S)—N-hydroxy-2-isopropyl-3-oxo-1-(phenylsulfonyl)-1,2,3,4-tetrahydroquinoxaline-6-carboxamide] was tested. Which IC50 did it give?
Answer: 2000 to 10000 nM

Question: How did the IC50 turn out when CC(C)[C@H]1C(=O)Nc2cc(C(=O)NO)ccc2N1S(=O)(=O)c1ccc(-c2ccccc2)cc1 [Compound 18b, (S)—N-hydroxy-1-(biphenyl-4-sulfonyl)-2-isopropyl-3-oxo-1,2,3,4-tetrahydroquinoxaline-6-carboxamide] was run?
Answer: 500 to 2000 nM

Question: With Cc1cc(C)c(S(=O)(=O)N2c3ccc(C(=O)NO)cc3NC(=O)[C@@H]2C(C)C)c(C)c1 [Compound 18c, (S)—N-hydroxy-2-isopropyl-3-oxo-1-(2,4,6-trimethybenzenesulfonyl)-1,2,3,4-tetrahydroquinoxaline-6-carboxamide] as the compound, how does the IC50 read?
Answer: 2000 to 10000 nM

Question: How did the IC50 turn out when CC(C)[C@H]1C(=O)Nc2cc(C(=O)NO)ccc2N1S(=O)(=O)c1cccc2ccccc12 [Compound 18f] was run?
Answer: 500 to 2000 nM

Question: Which IC50 does the source give for CC(C)[C@@H]1Nc2ccc(NC(=O)CCCCCCC(=O)Nc3ccccc3N)cc2NC1=O [Compound 23a, N1-(2-Aminophenyl)-N8—((S)-1,2,3,4-tetrahydro-2-isopropyl-3-oxoquinoxalin-6-yl)octanediamide] here?
Answer: 2000 to 10000 nM

Question: How did the IC50 turn out when CC(C)[C@@H]1Nc2ccc(NC(=O)CCCCCCC(=O)NO)cc2NC1=O [Compound 24a, N1—((S)-1,2,3,4-Tetrahydro-2-isopropyl-3-oxoquinoxalin-6-yl)-N8-hydroxyoctanediamide] was run?
Answer: 50 to 500 nM

Question: With CC(C)[C@H]1Nc2ccc(NC(=O)CCCCCCC(=O)NO)cc2NC1=O [Compound 24e, N1—((R)-1,2,3,4-Tetrahydro-2-isopropyl-3-oxoquinoxalin-6-yl)-N8-hydroxyoctanediamide] as the compound, how does the IC50 read?
Answer: < 50 nM

Question: With O=C(CCCCCCC(=O)Nc1ccc2c(c1)NC(=O)[C@@H](Cc1c[nH]c3ccccc13)N2)NO [Compound 24f, N1—((R)-2-((1H-Indol-3-yl)methyl)-1,2,3,4-tetrahydro-3-oxoquinoxalin-6-yl)-N8-hydroxyoctanediamide] as the compound, how does the IC50 read?
Answer: < 50 nM

Question: With COc1ccc(CN2c3ccc(NC(=O)CCCCCCC(=O)NO)cc3NC(=O)[C@H]2C(C)C)cc1 [Compound 26e, N1—((R)-1-(4-Methoxybenzyl)-1,2,3,4-tetrahydro-2-isopropyl-3-oxoquinoxalin-6-yl)-N8-hydroxyoctanediamide] as the compound, how does the IC50 read?
Answer: 50 to 500 nM

Question: CC(C)[C@@H]1Nc2ccc(NC(=O)CCCCCCC(=O)c3ncco3)cc2NC1=O [Compound 29a, N—((S)-1,2,3,4-Tetrahydro-2-isopropyl-3-oxoquinoxalin-6-yl)-8-(oxazol-2-yl)-8-oxooctanamide] was tested. Which IC50 did it give?
Answer: 50 to 500 nM

Question: For COc1ccc(CN2c3ccccc3NC(=O)[C@H]2CCC(=O)CCC(=O)NO)cc1 [Compound 43, 6-((R)-1-(4-methoxybenzyl)-1,2,3,4-tetrahydro-3-oxoquinoxalin-2-yl)-N-hydroxy-4-oxy-hexanamide], which IC50 is on record?
Answer: 2000 to 10000 nM

Reference: patent publication US20070155730A1, “Benzodiazepine And Benzopiperazine Analog Inhibitors Of Histone Deacetylase” (METHYLGENE, INC., priority 2005, published 2007)
